# Assays:
# [1] = system: Periplaneta americana; assay: Insecticidal activity against Periplaneta americana (American cockroach) compound administered through injection into abdomen; format: functional
# [2] = system: Myzus persicae; assay: Insecticidal activity against Myzus persicae (green peach aphid) in two-leaf stage eggplant assessed as mortality at 1.6 ppm after 7 days; format: functional; conditions: 168 h
# [3] = system: Nephotettix cincticeps; assay: Insecticidal activity against Nephotettix cincticeps (green rice leafhopper) in compound-sprayed rice plant assessed as mortality at 1.6 ppm after 2 to 7 days; format: functional
# [4] = system: Aulacophora; assay: Insecticidal activity against second-instar larvae of Aulacophora femoralis (cucurbit leaf beetle) in compound-treated cucumber leaf assessed as mortality at 1.6 ppm after 2 to 7 days; format: functional
# [5] = target: T1, Nicotinic acetylcholine receptor alpha 5 subunit (Musca domestica) (UniProt A9XFY4); assay: Displacement of [3H]IMI from Musca domestica (house fly) head membrane nicotinic acetylcholine receptor
# T1 sequence (whole entry): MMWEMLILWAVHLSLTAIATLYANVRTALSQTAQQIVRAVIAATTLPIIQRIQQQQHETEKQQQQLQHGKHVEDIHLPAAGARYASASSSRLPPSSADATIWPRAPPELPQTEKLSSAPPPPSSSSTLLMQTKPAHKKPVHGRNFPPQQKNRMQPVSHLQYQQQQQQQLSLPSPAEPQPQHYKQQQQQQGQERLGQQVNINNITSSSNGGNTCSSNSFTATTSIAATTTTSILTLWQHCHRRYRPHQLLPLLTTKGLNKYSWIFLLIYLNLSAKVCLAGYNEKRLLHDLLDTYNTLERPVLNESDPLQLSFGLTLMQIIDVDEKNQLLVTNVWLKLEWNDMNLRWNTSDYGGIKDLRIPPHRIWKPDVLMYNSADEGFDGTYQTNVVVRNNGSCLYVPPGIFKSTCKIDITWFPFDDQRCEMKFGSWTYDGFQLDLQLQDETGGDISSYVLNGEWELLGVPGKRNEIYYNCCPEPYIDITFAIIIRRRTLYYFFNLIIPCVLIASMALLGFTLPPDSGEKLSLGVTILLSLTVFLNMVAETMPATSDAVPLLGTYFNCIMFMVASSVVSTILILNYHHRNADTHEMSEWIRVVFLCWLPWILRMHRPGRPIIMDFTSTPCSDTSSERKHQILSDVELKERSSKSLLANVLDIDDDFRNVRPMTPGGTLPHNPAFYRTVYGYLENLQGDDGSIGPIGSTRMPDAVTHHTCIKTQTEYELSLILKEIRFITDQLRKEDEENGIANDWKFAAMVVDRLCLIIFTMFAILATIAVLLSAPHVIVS
# [6] = system: Nephotettix cincticeps; assay: Insecticidal activity against Nephotettix cincticeps (green rice leafhopper) in compound-sprayed rice plant assessed as mortality at 8 ppm after 2 to 7 days; format: functional
# [7] = system: Aulacophora; assay: Insecticidal activity against second-instar larvae of Aulacophora femoralis (cucurbit leaf beetle) in compound-treated cucumber leaf assessed as mortality at 8 ppm after 2 to 7 days; format: functional
# [8] = system: Periplaneta americana; assay: Insecticidal activity against Periplaneta americana (American cockroach) compound administered through injection into abdomen in presence of piperonyl butoxide and NIA 16388; format: functional
# [9] = system: Musca domestica; assay: Insecticidal activity against Musca domestica (house fly) compound administered through injection in presence of piperonyl butoxide and NIA 16388; format: functional
# [10] = system: Musca domestica; assay: Insecticidal activity against Musca domestica (house fly) compound administered through injection; format: functional
# [11] = system: Periplaneta americana; assay: Neuroblocking potency in Periplaneta americana (American cockroach) admoninal central nerve cod; format: functional
# [12] = system: Myzus persicae; assay: Insecticidal activity against Myzus persicae (green peach aphid) in two-leaf stage eggplant assessed as mortality at 8 ppm after 7 days; format: functional; conditions: 168 h
SMILES,MLD [1] [nmol],mortality at 1.6 ppm [2] [%],mortality at 1.6 ppm [3] [%],mortality at 1.6 ppm [4] [%],Activity [5] [µM],mortality at 8 ppm [6] [%],mortality at 8 ppm [7] [%],MLD [8] [nmol],MLD [9] [pmol],MLD [10] [pmol],Activity [11] [µM],mortality at 8 ppm [12] [%]
C[C@H](c1ccc(Cl)nc1)N1CCN/C1=N\[N+](=O)[O-] [(R)-METHYL-IMIDACLOPRID],42,60,100,50,0.95,100,90,0.83,2.3,55,73,90
C[C@@H](c1ccc(Cl)nc1)N1CCN/C1=N\[N+](=O)[O-] [(S)-METHYL-IMIDACLOPRID],30,40,90,100,0.19,100,100,0.93,1.1,45,5.9,60
O=[N+]([O-])/N=C1\NCCN1Cc1ccc(Cl)nc1 [IMIDACLOPRID],1.1,100,100,100,0.02,100,100,0.07,0.26,2.2,2.3,100
CN1CCC[C@H]1c1cccnc1 [NICOTINE],490,,,,11.9,,,310,,,,
CN1CCC[C@@H]1c1cccnc1 [R-NICOTINE],320,,,,422,,,160,,,,

# Reference: ChEMBL document CHEMBL3046160, “Insecticidal Activities of the Enantiomers of Asymmetric 1-[1-(6-Chloro-3-pyridyl)ethyl]-2-nitroiminoimidazolidine against American Cockroach, Cucurbit Leaf Beetle, Green Rice Leafhopper and Green Peach Aphid Following Injection, Dipping and Spraying” (2004)
